Source: ChEMBL document CHEMBL1158371, “Design, synthesis, and evaluation of biphenyl-4-yl-acrylohydroxamic acid derivatives as histone deacetylase (HDAC) inhibitors” (Eur J Med Chem, 2009)
Activity calls are given as the source filed them. No cut-off for these calls is given here.

Tests used:
NB-4 = experiment: Antiproliferative activity against human NB4 cells after 72 hrs; assay type: functional, cell-based; settings: NB-4, 72 h
Histone deacetylase 2 = Histone deacetylase 2 (Homo sapiens, UniProt Q92769); experiment: Inhibition of HDAC2 in human HeLa cells; assay type: cell-based
Histone deacetylase 2, sequence (Q92769 whole entry): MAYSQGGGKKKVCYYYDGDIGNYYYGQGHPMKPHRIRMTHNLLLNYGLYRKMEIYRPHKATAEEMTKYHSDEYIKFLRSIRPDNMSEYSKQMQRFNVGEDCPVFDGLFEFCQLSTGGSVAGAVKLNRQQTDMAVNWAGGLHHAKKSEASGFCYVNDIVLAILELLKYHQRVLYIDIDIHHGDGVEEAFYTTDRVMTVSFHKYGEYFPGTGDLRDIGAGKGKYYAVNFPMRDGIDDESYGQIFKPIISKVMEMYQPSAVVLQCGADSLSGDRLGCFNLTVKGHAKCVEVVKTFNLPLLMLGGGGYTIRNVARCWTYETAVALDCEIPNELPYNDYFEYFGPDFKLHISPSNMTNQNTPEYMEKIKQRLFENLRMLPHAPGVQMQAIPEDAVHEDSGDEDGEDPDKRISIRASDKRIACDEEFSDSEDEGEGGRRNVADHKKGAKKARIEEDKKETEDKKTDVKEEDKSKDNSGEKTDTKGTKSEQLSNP

IGROV-1 [1] = experiment: Antiproliferative activity against cisplatin-resistant human IGROV1 cells after 72 hrs; assay type: functional, cell-based; settings: IGROV-1, 72 h
IGROV-1 [2] = experiment: Antiproliferative activity against human IGROV1 cells after 72 hrs; assay type: functional, cell-based; settings: IGROV-1, 72 h
HCT-116 [3] = experiment: Antiproliferative activity against human HCT116 cells after 72 hrs; assay type: functional, cell-based; settings: HCT-116, 72 h
NCI-H460 [4] = experiment: Antiproliferative activity against human H460 cells after 72 hrs; assay type: functional, cell-based; settings: NCI-H460, 72 h
IGROV-1 [5] = experiment: Cell cycle arrest in human IGROV1 cells assessed as accumulation at sub-G1 phase at IC80 after 24 hrs using propidium-iodide staining by flow-cytometry; assay type: functional, cell-based
IGROV-1 [6] = experiment: Cell cycle arrest in cisplatin-resistant human IGROV1 cells assessed as partial accumulation at S phase at IC80 using propidium-iodide staining by flow-cytometry; assay type: functional, cell-based
IGROV-1 [7] = experiment: Cell cycle arrest in cisplatin-resistant human IGROV1 cells assessed as partial accumulation at G2/M phase at IC80 using propidium-iodide staining by flow-cytometry; assay type: functional, cell-based
IGROV-1 [8] = experiment: Induction of apoptosis in human IGROV1 cells at IC80 after 72 hrs by TUNEL assay; assay type: functional
IGROV-1 [9] = experiment: Cell cycle arrest in cisplatin-resistant human IGROV1 cells assessed as partial accumulation at G2/M phase at IC90 using propidium-iodide staining by flow-cytometry; assay type: functional, cell-based
IGROV-1 [10] = experiment: Cell cycle arrest in human IGROV1 cells assessed as accumulation at sub-G1 phase at IC90 after 24 hrs using propidium-iodide staining by flow-cytometry; assay type: functional, cell-based
IGROV-1 [11] = experiment: Cell cycle arrest in cisplatin-resistant human IGROV1 cells assessed as partial accumulation at S phase at IC90 using propidium-iodide staining by flow-cytometry; assay type: functional, cell-based
IGROV-1 [12] = experiment: Induction of apoptosis in human IGROV1 cells at IC90 after 72 hrs by TUNEL assay; assay type: functional
Mus musculus [13] = experiment: Toxicity in athymic nude Swiss mouse bearing human HCT116 cells assessed as body weight loss at 100 mg/kg, po QD administered 5 days a week for 4 weeks; assay type: organism-based, HCT-116; set-up: dose 100 mg/kg, route oral; settings: in vivo
IGROV-1 [14] = experiment: Antiproliferative activity against human IGROV1 cells after 72 hrs by cell counting; settings: IGROV-1, 72 h
IGROV-1 [15] = experiment: Antitumor activity against human IGROV1 cells athymic nude Swiss mouse assessed as tumor volume inhibition at 20 mg/kg, po QD administered 5 days a week for 4 weeks; assay type: functional
Mus musculus [16] = experiment: Toxicity in athymic nude Swiss mouse bearing human IGROV1 cells assessed as body weight loss at 20 mg/kg, po QD administered 5 days a week for 4 weeks; assay type: organism-based, IGROV-1; set-up: dose 20 mg/kg, route oral; settings: in vivo
IGROV-1 [17] = experiment: Antitumor activity against human IGROV1 cells athymic nude Swiss mouse assessed as tumor volume inhibition at 40 mg/kg, po QD administered 5 days a week for 4 weeks; assay type: functional
Mus musculus [18] = experiment: Toxicity in athymic nude Swiss mouse bearing human IGROV1 cells assessed as body weight loss at 40 mg/kg, po QD administered 5 days a week for 4 weeks; assay type: organism-based, IGROV-1; set-up: dose 40 mg/kg, route oral; settings: in vivo
HCT-116 [19] = experiment: Antitumor activity against human HCT116 cells athymic nude Swiss mouse assessed as tumor volume inhibition at 40 mg/kg, po QD administered 5 days a week for 4 weeks; assay type: functional
Mus musculus [20] = experiment: Toxicity in athymic nude Swiss mouse bearing human HCT116 cells assessed as body weight loss at 40 mg/kg, po QD administered 5 days a week for 4 weeks; assay type: organism-based, HCT-116; set-up: dose 40 mg/kg, route oral; settings: in vivo
Mus musculus [21] = experiment: Toxicity in athymic nude Swiss mouse bearing human HCT116 cells assessed as body weight loss at 20 mg/kg, ip QD administered 5 days a week for 4 weeks; assay type: organism-based, HCT-116; set-up: dose 20 mg/kg, route intraperitoneal; settings: in vivo
Mus musculus [22] = experiment: Toxicity in athymic nude Swiss mouse bearing human H460 cells assessed as body weight loss at 100 mg/kg, ip QD administered 5 days a week for 2 weeks; assay type: organism-based; set-up: dose 100 mg/kg, route intraperitoneal; settings: in vivo
HCT-116 [23] = experiment: Antitumor activity against human HCT116 cells athymic nude Swiss mouse assessed as tumor volume inhibition at 20 mg/kg, po QD administered 5 days a week for 4 weeks; assay type: functional
HCT-116 [24] = experiment: Antitumor activity against human HCT116 cells athymic nude Swiss mouse assessed as tumor volume inhibition at 20 mg/kg, ip QD administered 5 days a week for 4 weeks; assay type: functional; settings: HCT-116, ip, route intraperitoneal
Mus musculus [25] = experiment: Toxicity in athymic nude Swiss mouse bearing human HCT116 cells assessed as body weight loss at 20 mg/kg, po QD administered 5 days a week for 4 weeks; assay type: organism-based, HCT-116; set-up: dose 20 mg/kg, route oral; settings: in vivo
NCI-H460 [26] = experiment: Antitumor activity against human H460 cells athymic nude Swiss mouse assessed as tumor volume inhibition at 100 mg/kg, ip QD administered 5 days a week for 2 weeks; assay type: functional; settings: route intraperitoneal
NCI-H460 [27] = experiment: animal or person; assay type: functional, Homo sapiens; settings: Mus musculus, route oral
Description: Antitumor activity against human H460 cells athymic nude Swiss mouse assessed as tumor volume inhibition at 100 mg/kg, po QD administered 5 days a week for 2 weeks

Compound | IC50 (NB-4) | IC50 (Histone deacetylase 2) | IC50 (IGROV-1 [1]) | IC50 (IGROV-1 [2]) | IC50 (HCT-116 [3]) | IC50 (NCI-H460 [4]) | Activity (IGROV-1 [5]) | Activity (IGROV-1 [6]) | Activity (IGROV-1 [7]) | Activity (IGROV-1 [8]) | IC80 (IGROV-1 [14]) | other results
O=C(/C=C/C1CCC(c2ccc(O)cc2)CC1)NO (configuration not stated) | 900 nM | 310 nM | 2600 nM | 2500 nM | 370 nM | 2200 nM | – | – | – | – | – | –
N#Cc1ccc(-c2ccc(/C=C/C=C/C(=O)NO)cc2)cc1 | – | 1200 nM | 3100 nM | 1050 nM | – | 3300 nM | – | – | – | – | – | –
O=C(/C=C/c1ccc(-c2ccc(O)c(Cl)c2)cc1)NO | 580 nM | 460 nM | 3900 nM | 4100 nM | 1460 nM | 3100 nM | Active | Active | Active | – | – | –
O=C(CCCCCCC(=O)Nc1ccccc1)NO [VORINOSTAT] | – | – | 2200 nM | 2200 nM | 310 nM | – | Active | Active | Active | 15% | – | Activity (IGROV-1 [9]): Active; Activity (IGROV-1 [10]): Active; Activity (IGROV-1 [11]): Active; Activity (IGROV-1 [12]): 45%; Activity (Mus musculus [13]): 4%
O=C(CCc1ccc(-c2ccc(O)cc2)cc1)NO | 3900 nM | 1700 nM | 950 nM | 800 nM | 260 nM | 15200 nM | Active | Active | Active | 45% | 10000 nM | –
O=C(/C=C/Oc1ccc(-c2ccccc2)cc1)NO | – | – | 5900 nM | 5400 nM | 3900 nM | – | – | – | – | – | – | –
N#Cc1ccc(-c2ccc(/C=C/C(=O)NO)cc2)cc1 | – | 330 nM | 3200 nM | 2700 nM | – | 5700 nM | Active | Active | Active | 90% | 10000 nM | inhibition in vivo at 20 mg/kg (IGROV-1 [15]): 37%; Activity (Mus musculus [16]): 0%
O=C(/C=C/c1ccc(-c2ccc(CO)cc2)cc1)NO | 1810 nM | 220 nM | 5500 nM | 8000 nM | 800 nM | 3800 nM | Active | Active | Active | 90% | 15000 nM | –
O=C(CCC1CCC(c2ccc(O)cc2)CC1)NO (configuration not stated) | 6900 nM | – | 23900 nM | 31900 nM | 4270 nM | 9500 nM | – | – | – | – | – | –
O=C(/C=C/c1ccc(-c2ccncc2)cc1)NO | 3290 nM | > 5000 nM | – | – | – | – | – | – | – | – | – | –
O=C(/C=C/c1ccc(-c2ccccc2)cc1)NO | 900 nM | 820 nM | 4000 nM | 3500 nM | 1580 nM | 5400 nM | – | – | – | – | – | –
O=C(/C=C/c1ccc(-c2ccc(O)cc2)cc1)NO | 2300 nM | – | 6500 nM | 7600 nM | 330 nM | 6000 nM | – | – | – | 40% | 20000 nM | inhibition in vivo at 20 mg/kg (IGROV-1 [15]): 44%; inhibition in vivo at 40 mg/kg (IGROV-1 [17]): 49%; Activity (Mus musculus [18]): 6%; inhibition in vivo at 40 mg/kg (HCT-116 [19]): 65%; Activity (Mus musculus [20]): 8%; Activity (Mus musculus [16]): 2%
O=C(/C=C/c1ccc(-c2cccs2)cc1)NO | – | 450 nM | 3200 nM | 2800 nM | – | 2800 nM | Active | Active | Active | 90% | 7000 nM | –
COc1ccc(-c2ccc(/C=C/C(=O)NO)cc2)cc1 | – | 1160 nM | 2300 nM | 750 nM | 220 nM | 3700 nM | Active | Active | Active | 52% | 3000 nM | Activity (Mus musculus [21]): 2%; inhibition in vivo at 20 mg/kg (IGROV-1 [15]): 71%; Activity (Mus musculus [22]): 4%; inhibition in vivo at 20 mg/kg (HCT-116 [23]): 35%; inhibition in vivo at 20 mg/kg (HCT-116 [24]): 50%; Activity (Mus musculus [25]): 1%; inhibition in vivo at 100 mg/kg (NCI-H460 [26]): 39%; inhibition in vivo at 100 mg/kg (NCI-H460 [27]): 57%; Activity (Mus musculus [16]): 0%
O=C(/C=C/C=C/c1ccc(-c2ccccc2)cc1)NO | 660 nM | > 5000 nM | 2400 nM | 1400 nM | 980 nM | 1900 nM | Active | Active | Active | 89% | 3000 nM | –
O=C(CCCCc1ccc(-c2ccccc2)cc1)NO | 860 nM | 720 nM | 9100 nM | 8000 nM | 2700 nM | 4700 nM | Active | Active | Active | 65% | 12000 nM | –
CN(C)c1ccc(-c2ccc(/C=C/C(=O)NO)cc2)cc1 | 860 nM | > 5000 nM | 3500 nM | 1100 nM | 700 nM | – | Active | Active | Active | 89% | 3000 nM | –
O=Cc1ccc(-c2ccc(/C=C/C(=O)NO)cc2)cc1 | – | – | 20300 nM | 12100 nM | – | – | – | – | – | – | – | –
O=C(/C=C/c1ccc(-c2ccc3[nH]ccc3c2)cc1)NO | 6500 nM | 1200 nM | 29300 nM | 22100 nM | – | 14000 nM | – | – | – | – | – | –
O=C(/C=C/c1cccc(-c2ccc(O)cc2)c1)NO | 2850 nM | 320 nM | > 10000 nM | > 10000 nM | 1640 nM | 5600 nM | – | – | – | – | – | –
COc1ccc(-c2ccc(/C=C/C=C/C(=O)NO)cc2)cc1 | – | > 5000 nM | 2010 nM | 570 nM | – | > 20000 nM | – | – | – | 90% | 10000 nM | –
O=C(/C=C/c1ccc(-c2ccc(Cl)cc2)cc1)NO | 760 nM | 1860 nM | 1360 nM | 610 nM | 510 nM | – | Active | Active | Active | 77% | 2000 nM | –
